Results taken from US7514582B2, “2′-substituted 1,1′-biphenyl-2-carboxamides, processes for their preparation, their use as medicaments, and pharmaceutical preparations comprising them” (Sanofi-Aventis Deutschland GmbH, priority 1999, dated 2009).

target: T1, Kv1.5 channels from humans (Homo sapiens, UniProt P22460); assay: Kv1.5 currents in Xenopus oocytes, two-microelectrode voltage clamp; format: cell-based
T1 construct: expressed in transfected cells; host or cells: Xenopus laevis oocytes injected with in vitro synthesized RNA
Protocol: Kv1.5 channels from humans were expressed in Xenopus oocytes. For this, oocytes from Xenopus laevis were first isolated and defolliculated. RNA encoding Kv1.5 synthesized in vitro was then injected into these oocytes. After Kv1.5 protein expression for 1-7days, Kv1.5 currents were measured on the oocytes using the two-microelectrode voltage clamp technique. The Kv1.5 channels were in this case as a rule activated using voltage jumps to 0 mV and 40 mV lasting 500 ms. The bath was rinsed with a solution of the following composition: NaCl 96 mM, KCl 2 mM, CaCl2 1.8 mM, MgCl2 1 mM, HEPES 5 mM (titrated with NaOH to pH 7.4). These experiments were carried out at room temperature. The following were employed for data acquisition and analysis: Genedamp amplifier (Axon Instruments, Foster City, USA) and MacLab D/A converter and software (AD Instruments, Castle Hill, Australia). The substances according to the invention were tested by adding them in different concentrations to the bath solution. The effects of the substances were calculated as the percentage inhibition of the Kv1.5 control current which was obtained when no substance was added to the solution. The data were then extrapolated using the Hill equation in order to determine the inhibitory concentration IC50 for the respective substances.

T1 sequence (P22460 whole entry): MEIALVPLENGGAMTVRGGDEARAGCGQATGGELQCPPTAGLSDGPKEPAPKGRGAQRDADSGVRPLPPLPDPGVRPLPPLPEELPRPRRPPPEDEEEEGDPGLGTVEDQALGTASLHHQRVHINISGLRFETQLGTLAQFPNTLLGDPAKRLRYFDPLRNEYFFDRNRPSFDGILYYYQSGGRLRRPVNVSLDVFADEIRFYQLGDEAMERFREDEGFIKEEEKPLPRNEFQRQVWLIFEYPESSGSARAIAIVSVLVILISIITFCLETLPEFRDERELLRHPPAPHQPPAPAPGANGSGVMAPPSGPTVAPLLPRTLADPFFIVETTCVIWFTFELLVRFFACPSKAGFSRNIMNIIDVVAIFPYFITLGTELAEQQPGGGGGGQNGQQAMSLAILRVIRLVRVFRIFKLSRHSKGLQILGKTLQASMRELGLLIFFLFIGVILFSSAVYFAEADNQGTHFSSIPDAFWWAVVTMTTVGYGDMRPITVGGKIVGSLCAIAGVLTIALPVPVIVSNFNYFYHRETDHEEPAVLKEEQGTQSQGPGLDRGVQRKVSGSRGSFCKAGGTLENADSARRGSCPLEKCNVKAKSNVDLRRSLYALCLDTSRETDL

| Structure (SMILES) | IC50 [nM] |
| --- | --- |
| CC(C)NC(=O)C(Cc1ccccn1)NC(=O)c1ccccc1-c1ccccc1CNC(=O)OCc1ccccc1 (stereo not shown) [13 i] | 1200 |
| Cc1ccccc1CCC(=O)NCc1ccccc1-c1ccccc1C(=O)NCc1ccc(F)cc1F [14 a] | 3600 |
| O=C(CCc1ccc(F)cc1)NCc1ccccc1-c1ccccc1C(=O)NCc1ccc(F)cc1F [14 b] | 2700 |
| O=C(CCc1ccc(O)cc1)NCc1ccccc1-c1ccccc1C(=O)NCc1ccc(F)cc1F [14 d] | 2000 |
| O=C(CCc1ccc(F)c(F)c1)NCc1ccccc1-c1ccccc1C(=O)NCc1ccc(F)cc1F [14 f] | 2500 |
| COc1ccc(-c2ccccc2CNC(=O)OC(C)(C)C)c(C(=O)NCCC(C)C)c1 [15 b] | 3100 |
| CC(C)CCNC(=O)c1cc(O)ccc1-c1ccccc1CNC(=O)OCc1ccccc1 [16 b] | 5200 |
| CC(C)CCNC(=O)c1ccccc1-c1ccccc1[C@@H](C)NC(=O)OCc1ccccc1 [17 c] | 2100 |
| CC(C)CCNC(=O)c1ccccc1-c1ccccc1[C@H](C)NC(=O)OCc1ccccc1 [17 d] | 1300 |
| CC(C)CCNC(=O)c1ccccc1-c1ccccc1[C@H](C)NC(=O)O[C@@H](C)c1ccccc1 [17 e] | 1800 |
| COCCCNC(=O)c1ccccc1-c1ccccc1CNC(=O)OCc1ccccc1 [18 aa] | 400 |
| O=C(NCc1ccccc1-c1ccccc1C(=O)NCc1nc2ccccc2[nH]1)OCc1ccccc1 [18 ah] | 2100 |
| CN(C)c1ccc(CNC(=O)c2ccccc2-c2ccccc2CNC(=O)OCc2ccccc2)cc1 [18 ai] | 6600 |
| C[C@H](CC(=O)NCc1ccccc1-c1ccccc1C(=O)NCc1ccncc1)c1ccccc1 [18 f] | 1300 |
| CCC(C)CC(=O)NCc1ccccc1-c1ccccc1C(=O)NCc1ccccn1 (stereo not shown) [18 g] | 3900 |
| C[C@H](CC(=O)NCc1ccccc1-c1ccccc1C(=O)NCCc1ccncc1)c1ccccc1 [18 h] | 800 |
| C[C@H](CC(=O)NCc1ccccc1-c1ccccc1C(=O)NCCc1cccnc1)c1ccccc1 [18 i] | 400 |
| Cc1cccc(CNC(=O)c2ccccc2-c2ccccc2CNC(=O)C[C@@H](C)c2ccc([N+](=O)[O-])cc2)n1 [18 j] | 700 |
| CCCC(C)OC(=O)NCc1ccccc1-c1ccccc1C(=O)NCC1CC1 (stereo not shown) [18 m] | 2100 |
| CC(C)CCNC(=O)c1ccccc1-c1ccccc1CNC(=O)OCC1CC1 [18 o] | 3600 |
| O=C(NCc1ccccc1-c1ccccc1C(=O)NCc1cccnc1)OCCc1ccccc1 [18 q] | 3200 |
| C[C@H](OC(=O)NCc1ccccc1-c1ccccc1C(=O)NCCc1cccnc1)c1ccccc1 [18 s] | 900 |

More lines, now with the values ahead:

| IC50 [nM] | Structure (SMILES) |
| --- | --- |
| 1400 | COc1ccc(S(=O)(=O)NCc2ccccc2-c2ccccc2C(=O)N[C@@H](CC(C)C)C(=O)NCC(F)(F)F)cc1 [13 h] |
| 800 | COc1ccc(CCC(=O)NCc2ccccc2-c2ccccc2C(=O)NCc2ccc(F)cc2F)cc1 [14 e] |
| 7200 | CC(C)CCC(=O)NCc1ccccc1-c1ccccc1C(=O)NCC1CC1 [18 a] |
| 1100 | COc1ccc(CC(=O)NCc2ccccc2-c2ccccc2C(=O)NC(C)CC(C)C)cc1 (stereo not shown) [18 ab] |
| 10000 | CC[C@@H](C)OC(=O)NCc1ccccc1-c1ccccc1C(=O)NCc1cccc(C)n1 [18 ac] |
| 5800 | COc1ccc(CC(=O)NCc2ccccc2-c2ccccc2C(=O)NCc2nc3ccccc3[nH]2)cc1 [18 af] |
| 400 | C[C@H](CC(=O)NCc1ccccc1-c1ccccc1C(=O)NCC1CC1)c1ccccc1 [18 b] |
| 4200 | CC(C)CCNC(=O)c1ccccc1-c1ccccc1CNC(=O)COc1ccccc1 [18 c] |
| 400 | CC(C)CCNC(=O)c1ccccc1-c1ccccc1CNC(=O)C[C@@H](C)c1ccccc1 [18 d] |
| 1700 | CC(C)CCC(=O)NCc1ccccc1-c1ccccc1C(=O)NCc1ccc(F)cc1F [18 e] |
| 3000 | O=C(Cc1ccc(F)cc1)NCc1ccccc1-c1ccccc1C(=O)Nc1ccc(F)cc1 [18 k] |
| 400 | C[C@H](O)CNC(=O)c1ccccc1-c1ccccc1CNC(=O)O[C@@H](C)c1ccccc1 [18 n] |
| 1100 | O=C(Cc1ccc(F)cc1)NCc1ccccc1-c1ccccc1C(=O)NCc1ccc(F)cc1F [18 u] |
| 5400 | O=C(Cc1ccc(O)cc1)NCc1ccccc1-c1ccccc1C(=O)NCc1ccc(F)cc1F [18 w] |
| 4600 | COc1ccc(CC(=O)NCc2cccc(C)c2-c2c(C)cccc2C(=O)NCCC(C)C)cc1 [18 x] |
| 1900 | COc1ccc(CC(=O)NCc2ccccc2-c2ccccc2C(=O)NCCCOC(C)C)cc1 [18 y] |
| 1200 | COc1ccc(CC(=O)NCc2ccccc2-c2ccccc2C(=O)NC2CCCC2)cc1 [18 z] |

system: not given; assay: not given

| melting point [°C] | Structure (SMILES) |
| --- | --- |
| 145 | O=C(NCCc1ccccc1)c1ccccc1-c1ccccc1CNS(=O)(=O)c1cccc(C(F)(F)F)c1 [Example 3 a, 2′-(3-Trifluoromethylphenylsulfonylaminomethyl)biphenyl-2-carboxylic acid phenethylamide] |
| 145 | CC(=O)c1ccc(S(=O)(=O)NCc2ccccc2-c2ccccc2C(=O)NCCc2ccccc2)cc1 [Example 3 b, 2′-(4-Acetylphenylsulfonylaminomethyl)biphenyl-2-carboxylic acid phenethylamide] |
| 145 | O=C(NCCc1ccccc1)c1ccccc1-c1ccccc1CNS(=O)(=O)c1cccc([N+](=O)[O-])c1 [Example 3 c, 2′-(3-Nitrophenylsulfonylaminomethyl)biphenyl-2-carboxylic acid phenethylamide] |
| 154 | O=C(NCCc1ccccc1)c1ccccc1-c1ccccc1CNS(=O)(=O)c1ccccc1 [Example 3 d, 2′-(Phenylsulfonylaminomethyl)biphenyl-2-carboxylic acid phenethylamide] |
| 153 | O=C(NCCc1ccccc1)c1ccccc1-c1ccccc1CNS(=O)(=O)c1cccc(F)c1 [Example 3 e, 2′-(3-Fluorophenylsulfonylaminomethyl)biphenyl-2-carboxylic acid phenethylamide] |
| 163 | CCc1ccc(S(=O)(=O)NCc2ccccc2-c2ccccc2C(=O)NCCc2ccccc2)cc1 [Example 3 f, 2′-(4-Ethylphenylsulfonylaminomethyl)biphenyl-2-carboxylic acid phenethylamide] |
| 126 | O=C(NCc1ccccc1)c1ccccc1-c1ccccc1CNS(=O)(=O)c1cccc(C(F)(F)F)c1 [Example 3 g, 2′-(3-Trifluoromethylphenylsulfonylaminomethyl)biphenyl-2-carboxylic acid benzylamide] |
| 182 | CC(=O)c1cccc(S(=O)(=O)NCc2ccccc2-c2ccccc2C(=O)NCc2ccccc2)c1 [Example 3 h, 2′-(3-Acetylphenylsulfonylaminomethyl)biphenyl-2-carboxylic acid benzylamide] |
| 175 | O=C(NCc1ccccc1)c1ccccc1-c1ccccc1CNS(=O)(=O)c1cccc([N+](=O)[O-])c1 [Example 3 i, 2′-(3-Nitrophenylsulfonylaminomethyl)biphenyl-2-carboxylic acid benzylamide] |
| 162 | O=C(NCc1ccccc1)c1ccccc1-c1ccccc1CNS(=O)(=O)c1ccccc1 [Example 3 j, 2′-(3-Phenylsulfonylaminomethyl)biphenyl-2-carboxylic acid benzylamide] |
| 147 | O=C(NCc1ccccc1)c1ccccc1-c1ccccc1CNS(=O)(=O)c1cccc(F)c1 [Example 3 k, 2′-(3-Fluorophenylsulfonylaminomethyl)biphenyl-2-carboxylic acid benzylamide] |
| 127 | CC(C)CCNC(=O)c1ccccc1-c1ccccc1CNS(=O)(=O)c1ccccc1 [Example 3 l, 2′-(Phenylsulfonylaminomethyl)biphenyl-2-carboxylic acid (3-methyl butyl)amide] |
| 149 | CC(C)CCNC(=O)c1ccccc1-c1ccccc1CNS(=O)(=O)c1ccc(F)cc1 [Example 3 m, 2′-(4-Fluorophenylsulfonylaminomethyl)biphenyl-2-carboxylic acid (3-methylbutyl)amide] |
| 141 | CC(C)CCNC(=O)c1ccccc1-c1ccccc1CNS(=O)(=O)c1cccc(F)c1 [Example 3 n, 2′-(3-Fluorophenylsulfonylaminomethyl)biphenyl-2-carboxylic acid (3-methylbutyl)amide] |
| 131 | O=C(NCCc1ccccn1)c1ccccc1-c1ccccc1CNS(=O)(=O)c1ccccc1 [Example 3 p] |
| 130 | O=C(NCCc1ccccn1)c1ccccc1-c1ccccc1CNS(=O)(=O)c1ccc(F)cc1 [Example 3 q, 2′-(4-Fluorophenylsulfonylaminomethyl)biphenyl-2-carboxylic acid 2-(2-pyridyl)ethylamide] |
| 123 | O=C(NCCc1ccccn1)c1ccccc1-c1ccccc1CNS(=O)(=O)c1cccc(F)c1 [Example 3 r, 2′-(3-Fluorophenylsulfonylaminomethyl)biphenyl-2-carboxylic acid 2-(2-pyridyl)ethylamide] |
| 147 | CC(C)CCNC(=O)c1ccccc1-c1ccccc1CNC(=O)c1ccccc1 [Example 4 a, 2′-(Benzoylaminomethyl)biphenyl-2-carboxylic acid (3-methylbutyl)amide] |

| Structure (SMILES) | melting point [°C] |
| --- | --- |
| CC(C)CCNC(=O)c1ccccc1-c1ccccc1CNC(=O)OCc1ccccc1 [Example 2 b, 2′-(Benzyloxycarbonylaminomethyl)biphenyl-2-carboxylic acid (3-methylbutyl)amide] | 112 |
